How the values were obtained:
[1] = target: BTK WT (Homo sapiens (Human), UniProt Q06187); assay: Lantha screening kinase reaction, inhibition of BTK WT; assay type: biochemical
Experimental: The compound was predissolved in 100% DMSO. 10 mM drug stock solution was obtained by dissolution at room temperature and then serially diluted with 8 vol % DMSO solution to a final concentration of 10-0.005 μM. […] Among the wells, the kinase in the blank well was replaced with a reaction buffer and the kinase well (Enzyme) was not added with any drug. After shaking at 25° C. for 60 minutes in the dark, 10 μl of Detection Solution (mixture of Invitrogen PV3528 and EDTA, which was diluted with TR-FRET dilution buffer, the working concentration of EDTA was 5 mM, the working concentration of Lanthascreening Tb PY20 antibody was 0.2 nM) was added and shaken at room temperature for 30 minutes. The plates were read on a VictorX5 fluorescent plate reader (PerkinElmer) and the light absorption at an excitation wavelength of 340 nm and emission wavelengths of 500 nm and 520 nm was measured.
The calculation method for the inhibition ratio (referring to the specification of Invitrogen, PV3363) was as follows: Emission ratio (ER):Coumarin Emission (520 nm)/Fluorescein Emission (500 nm) 1. The inhibition ratio (IR):(ERkinase−ERtest compound)/(ERkinase−ERblank)×100%. 2.
The half-inhibitory concentration IC50 was calculated by fitting with XLFIT5.0 software (IDBS, UK).

[2] = target: βBTK Y223 (Homo sapiens (Human), UniProt Q06187); assay: Intracellular βBTK Y223 phosphorylation HTRF in Ramos cells; assay type: cell-based
βBTK Y223, sequence (Q06187 whole entry): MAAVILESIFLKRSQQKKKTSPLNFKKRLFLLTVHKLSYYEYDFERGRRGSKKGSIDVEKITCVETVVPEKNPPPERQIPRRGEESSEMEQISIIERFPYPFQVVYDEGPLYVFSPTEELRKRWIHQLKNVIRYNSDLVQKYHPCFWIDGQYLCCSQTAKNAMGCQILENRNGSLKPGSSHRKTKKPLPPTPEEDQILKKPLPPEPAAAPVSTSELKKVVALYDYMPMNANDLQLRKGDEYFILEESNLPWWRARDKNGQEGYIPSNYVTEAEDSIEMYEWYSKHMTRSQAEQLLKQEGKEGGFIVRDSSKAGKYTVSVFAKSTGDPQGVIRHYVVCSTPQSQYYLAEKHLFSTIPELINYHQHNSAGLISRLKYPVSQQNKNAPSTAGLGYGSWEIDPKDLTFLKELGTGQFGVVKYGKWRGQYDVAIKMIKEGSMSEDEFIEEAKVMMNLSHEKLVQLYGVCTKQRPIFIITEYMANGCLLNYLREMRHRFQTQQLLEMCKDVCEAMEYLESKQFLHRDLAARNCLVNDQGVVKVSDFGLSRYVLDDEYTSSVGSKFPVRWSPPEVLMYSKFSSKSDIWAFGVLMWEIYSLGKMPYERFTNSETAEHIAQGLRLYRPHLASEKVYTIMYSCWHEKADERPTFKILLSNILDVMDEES
Experimental: The compound was predissolved in 100% DMSO. […] 20 μl of lysate (4× lysate: blocked mother liquor is 25:1) was added to each well and incubated for 30 minutes at 25° C. on a shaker. It was shaken on an oscillator at 800 rpm for 1 minute. […] The half-inhibitory concentration IC50 was calculated by fitting with XLFIT 5.0 software (IDBS, UK).

[3] = target: wild-type EGFR kinase (Homo sapiens (Human), UniProt P00533); assay: Wild type EGFR kinase inhibition test (z-lyte); assay type: biochemical; conditions: 10 μM ATP; read-out: EGFR WT IC50
wild-type EGFR kinase, sequence (P00533 25-1210): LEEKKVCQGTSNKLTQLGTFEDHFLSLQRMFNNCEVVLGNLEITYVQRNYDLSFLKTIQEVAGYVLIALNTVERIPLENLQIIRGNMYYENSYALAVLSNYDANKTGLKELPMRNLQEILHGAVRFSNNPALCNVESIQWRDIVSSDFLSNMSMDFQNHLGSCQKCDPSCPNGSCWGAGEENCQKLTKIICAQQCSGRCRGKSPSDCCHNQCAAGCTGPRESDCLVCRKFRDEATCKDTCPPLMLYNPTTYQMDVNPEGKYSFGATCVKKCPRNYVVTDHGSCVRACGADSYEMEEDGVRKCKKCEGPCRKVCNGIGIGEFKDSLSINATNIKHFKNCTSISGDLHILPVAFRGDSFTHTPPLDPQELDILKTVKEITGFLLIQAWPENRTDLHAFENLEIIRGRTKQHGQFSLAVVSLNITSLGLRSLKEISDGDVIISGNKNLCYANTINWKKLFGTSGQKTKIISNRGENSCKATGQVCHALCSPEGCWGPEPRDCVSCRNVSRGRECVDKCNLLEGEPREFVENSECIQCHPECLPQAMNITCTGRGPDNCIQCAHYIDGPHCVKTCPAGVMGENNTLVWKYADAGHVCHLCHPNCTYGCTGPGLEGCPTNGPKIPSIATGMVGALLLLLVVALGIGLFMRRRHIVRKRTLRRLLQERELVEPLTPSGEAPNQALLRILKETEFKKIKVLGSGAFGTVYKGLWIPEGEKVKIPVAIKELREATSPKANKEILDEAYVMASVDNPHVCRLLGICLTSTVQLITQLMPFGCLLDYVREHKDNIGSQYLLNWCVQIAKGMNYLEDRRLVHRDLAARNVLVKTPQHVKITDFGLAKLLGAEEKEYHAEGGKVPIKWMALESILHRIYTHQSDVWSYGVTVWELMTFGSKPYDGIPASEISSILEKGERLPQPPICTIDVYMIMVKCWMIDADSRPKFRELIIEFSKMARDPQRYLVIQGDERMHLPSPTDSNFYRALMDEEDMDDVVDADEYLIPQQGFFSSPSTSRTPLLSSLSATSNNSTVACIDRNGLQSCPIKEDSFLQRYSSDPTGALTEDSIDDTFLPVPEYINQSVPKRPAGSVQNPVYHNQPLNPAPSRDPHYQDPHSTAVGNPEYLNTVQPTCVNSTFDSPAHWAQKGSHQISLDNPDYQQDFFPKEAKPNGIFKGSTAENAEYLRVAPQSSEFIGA
From the text: All the following reagents used in z-lyte test are commercially available from Invitrogen.
The calculation method for the inhibition ratio (referring to the specification of Invitrogen, PV3363) was as follows: ER=Coumarin Emission(450 nm)/Fluorescein Emission(520 nm) 1. Phosphorylation ratio=(1−((ER×C3520nm−C3450nm)/((C1450nm−C3450nm)+ER×(C3520nm−C1520nm))))×100% 2. Inhibition ratio (IR)=(1−phosphorylation ratio of the test compound)/(phosphorylation ratio of C2))×100% 3.
The half-inhibitory concentration IC50 was calculated by fitting with XLFIT 5.0 software (IDBS, UK).

[4] = in vivo; conditions: mouse, in vivo, po, 30 mg/kg
Experimental: Test Animals: ICR mice, weight 28-30 g, male, totally 12, purchased from SLAC Laboratory Animal Co., Ltd. Mice were fasting one night before administration and freely fed 4 hours after administration.
Administration and Blood collection: 6 mice were administered intragastrically (PO) in a administered dosage of 30 mg/kg and a administered volume of 10 mL/kg. One administration route was subjected with 6 mice, blood samples of three mice were collected at one time point, and blood samples of another three mice were collected at alternate time point alternately. Blood was collected at 8 time points of 0.083, 0.25, 0.5, 1, 2, 4, 8, 24 h after administration respectively.
Animals were manually controlled at the time of collection and approximately 80 μL of blood was collected from the mice fundus venous plexus into a tube containing K2EDTA. The collected blood sample was put on wet ice, centrifuged within 15 min (8000 rpm, 4 min at 4° C.), and then the plasma sample was taken and stored at minus 20° C. till analysis. The compounds were prepared on the day of the experiment.
Solvent excipient information: DMSO (brand: Sigma, batch number: SHBD2446V); 2-hydroxypropyl-3-cyclodextrin (brand: Sigma, batch number: BCBN8227V), acetic acid (brand: Sinopharm Group, batch number: 20150616), sodium acetate (Brand: GENERAL-REAGENT, batch number: P1246037).
Preparation of a 3 mg/mL PO dosing solution: the solvent was a solution of 5% DMSO and 95% PH4.5 (sodium acetate-acetate) in 20% of 2-hydroxypropyl-β-cyclodextrin.
Analytical method: Plasma samples were analyzed by liquid chromatography-tandem mass spectrometry (Instrument type: Triple Quad™ 4000).
Preparation of the standard curve: preparing a standard curve of the test compound 1n the plasma matrix of ICR mice with a linear range of 1.00-3000 ng/mL, and preparing control samples at low, medium and high concentrations of 3 ng/mL, 500 ng/mL, and 2400 ng/mL respectively.
Treatment of biological samples: the frozen plasma samples were thawed on ice, and after the samples were thawed, they were vortexed on a vortex for 5 min. 20 μL of plasma sample was added to a 96-well plate, and 200 μL of acetonitrile (brand: Merck, Lot: 1854029643) containing an internal standard dexamethasone (Brand: NIFDC, Lot: 1N2V-DPGY, 2000 ng/mL) was added to precipitate protein, which were vortexed for 5 min, and then centrifuged at 3700 rpm and 4° C. for 15 min. The supernatant was extracted and twice centrifuged under the same conditions, and finally 2 μL of the supernatant solution was analyzed by LC-MS/MS.

BTK WT, sequence (Q06187 whole entry): as the sequence (Q06187 whole entry) above

Structure (SMILES) | IC50 [1] [µM] | IC50 [2] [µM] | IC50 [3] [µM] | also measured
C=CC(=O)N1CCCC(Nc2nc(Nc3ccc(OCCOC)cc3)c3c(c2F)CNC3=O)C1 (stereo not shown) [Compound G-2, 6-(1-acryloylpiperidin-3-ylamino)-7-fluoro-4-(4-(2-methoxyethoxy)phenylamino)-1H-pyrrolo[3,4-c]pyridine-3 (2H)-one] | 0.003 | 0.005 | 1.62 | –
C=CC(=O)N1CCCCC(Nc2nc(Nc3ccc(OCCOC)cc3)c3c(c2F)CNC3=O)C1 (stereo not shown) [Compound G-3, 6-(1-acryloylazacycloheptane-3-ylamino)-7-fluoro-4-(4-(2-methoxyethoxy)phenylamino)-1H-pyrrolo[3,4-c]pyridine-3 (2H)-one] | 0.002 | 0.011 | 2.29 | –
C=CC(=O)N1CCCC(Nc2nc(Nc3ccc(OCCOC)cc3)c3c(c2F)CNC3=O)CC1 (stereo not shown) [Compound G-4] | 0.007 | 0.023 | 2.37 | –
C=CC(=O)N1CC(Nc2nc(Nc3ccc(OCCOC)cc3)c3c(c2F)CNC3=O)C1 [Compound G-5] | 0.048 | 0.059 | 1.91 | –
C=CC(=O)N1CCC(Nc2nc(Nc3ccc(OCCOC)cc3)c3c(c2F)CNC3=O)CC1 [Compound G-6] | – | 0.029 | – | –
C=CC(=O)N1CCCC(Nc2nc(Nc3cnn(C4CCOCC4)c3)c3c(c2F)CNC3=O)C1 (stereo not shown) [Compound G-10] | 0.003 | 0.007 | 1.74 | –
C=CC(=O)N1CCCC(Nc2nc(Nc3ccc(N4CCN(C)CC4)cc3)c3c(c2F)CNC3=O)C1 (stereo not shown) [Compound G-11] | 0.001 | 0.002 | 4.25 | –
C=CC(=O)N1CCCC(Nc2nc(Nc3ccc(N4CCN(C)CC4)cn3)c3c(c2F)CNC3=O)C1 (stereo not shown) [Compound G-12] | 0.021 | 0.08 | 3.85 | –
C=CC(=O)N1CCCC(Nc2nc(Nc3cc(C)ns3)c3c(c2F)CNC3=O)C1 (stereo not shown) [Compound G-23] | 0.005 | – | 1.79 | Area under curve AUC [4]: 0.645 µg·h/mL; Maximum blood concentration Cmax [4]: 0.8787 µg/mL; Oral relative bioavailability F (%) [4]: 14%; Tmax [4]: 4.8 min; half-time T1/2 [4]: 195 min
C=CC(=O)N1CCCC(Nc2nc(Nc3ccc(N4CCOCC4C)cc3)c3c(c2F)CNC3=O)C1 (stereo not shown) [Compound G-32] | 0.005 | – | 5.34 | Area under curve AUC [4]: 1.463 µg·h/mL; Maximum blood concentration Cmax [4]: 0.8377 µg/mL; Oral relative bioavailability F (%) [4]: 14.7%; Tmax [4]: 30 min; half-time T1/2 [4]: 72.6 min
C=CC(=O)N1CCCC(Nc2nc(Nc3ccc(N4CCOCC4)c(F)c3)c3c(c2F)CNC3=O)C1 (stereo not shown) [Compound G-33] | 0.005 | – | 7.17 | Area under curve AUC [4]: 1.193 µg·h/mL; Maximum blood concentration Cmax [4]: 0.964 µg/mL; Oral relative bioavailability F (%) [4]: 15.6%; Tmax [4]: 4.8 min; half-time T1/2 [4]: 71.4 min
C=CC(=O)N1CCCC(Nc2nc(Nc3ccc(N4CCN(C5COC5)CC4C)cc3)c3c(c2F)CNC3=O)C1 (stereo not shown) [Compound G-34] | 0.005 | – | 3.17 | Area under curve AUC [4]: 1.869 µg·h/mL; Maximum blood concentration Cmax [4]: 1.99 µg/mL; Oral relative bioavailability F (%) [4]: 28.6%; Tmax [4]: 4.8 min; half-time T1/2 [4]: 86.4 min
C=CC(=O)N1CCCC(Nc2nc(Nc3cnn(C)n3)c3c(c2F)CNC3=O)C1 (stereo not shown) [Compound G-35] | – | 0.035 | – | –
C=CC(=O)N1CC(Nc2nc(Nc3ccc(N4CCOCC4)c(F)c3)c3c(c2F)CNC3=O)CCC1C (stereo not shown) [Compound G-41] | 0.002 | 0.003 | – | –
C=CC(=O)N1CCCC(Nc2nc(Nc3ccc(N4CCOCC4C)c(F)c3)c3c(c2F)CNC3=O)C1 (stereo not shown) [Compound G-42] | 0.005 | – | 5.19 | Area under curve AUC [4]: 1.266 µg·h/mL; Maximum blood concentration Cmax [4]: 0.945 µg/mL; Oral relative bioavailability F (%) [4]: 12.3%; Tmax [4]: 15 min; half-time T1/2 [4]: 104 min
C=CC(=O)N1CCCC(Nc2nc(-c3cnn(C4CC4)c3)c3c(c2F)CNC3=O)C1 (stereo not shown) [Compound G-45] | 0.069 | 0.109 | – | –
C=CC(=O)N1CCCC(Nc2nc(-c3cnn(C(F)F)c3)c3c(c2F)CNC3=O)C1 (stereo not shown) [Compound G-48] | – | 0.062 | – | –
C=CC(=O)N1CCC2CN(c3nc(Nc4cnn(C)c4)c4c(c3F)CNC4=O)CC21 (stereo not shown) [Compound G-87] | 0.001 | 0.004 | – | –
C=CC(=O)N1CCC[C@H](Nc2nc(-c3cnn(C)c3)c3c(c2F)CNC3=O)[C@@H]1C [Compound G-109] | 0.062 | – | 6.82 | –
C=CC(=O)N1CCC[C@@H](Nc2nc(-c3cnn(C)c3)c3c(c2F)CNC3=O)C1 [Compound G-111] | 0.069 | – | > 10 | AUC ([4]; male, ICR): 2.18 µg·h/mL; Cmax ([4]; male, ICR): 3.49 µg/mL; Tmax ([4]; male, ICR): 4.8 min; bioavailability ([4]; male, ICR): 79.7%; half-life ([4]; male, ICR): 356 min
C=CC(=O)N1CCC[C@H](N(C)c2nc(-c3cnn(C)c3)c3c(c2F)CNC3=O)C1 [Compound G-112] | 0.018 | – | > 10 | –
C=CC(=O)N1CCC[C@@H](N(C)c2nc(-c3cnn(C)c3)c3c(c2F)CNC3=O)C1 [Compound G-113] | 0.005 | – | 6.17 | –
C=CC(=O)N1CCC[C@H](Nc2nc(Nc3ccc(N4CCOCC4)cc3)c3c(c2F)CNC3=O)C1 [Compound G-114] | 0.034 | – | 4.13 | AUC ([4]; male, ICR): 1.07 µg·h/mL; Cmax ([4]; male, ICR): 1.24 µg/mL; Tmax ([4]; male, ICR): 4.8 min; bioavailability ([4]; male, ICR): 13.7%; half-life ([4]; male, ICR): 148 min

Reference: patent US11155546B2, “4,6,7-trisubstituted 1,2-dihydropyrrolo[3,4-c]pyridin/pyrimidin-3-one derivatives and uses thereof” (SHANGHAI HAIYAN PHARMACEUTICAL TECHNOLOGY CO., LTD., priority 2017, dated 2021)
